Test results taken from paper PMC8751641, “Synthesis and Antiviral Activities of Neoechinulin B and Its Derivatives” (Journal of Natural Products, 2021).

Assays:
[1] = tested on: HCV JFH-1; set-up: method as in PMID 27489280; conditions: cited from earlier work
[2] = tested on: SARS-CoV-2 Wk-521 strain; assay: Anti-SARS-CoV-2 assay (extracellular viral RNA, VeroE6/TMPRSS2 cells); conditions: for IC50: read-out: Anti-SARS-CoV-2 activity IC50, MOI 0.003, 24 h, extracellular viral RNA, mean ± SD, triplicate; for IC90: read-out: Anti-SARS-CoV-2 activity IC90, MOI 0.003, 24 h, extracellular viral RNA, mean ± SD, triplicate
[3] = MTT assay, cytotoxicity against host Huh7.5.1 cells; type: cell-based; conditions: human
Procedure: (§1) The anti-HCV assay was performed as described previously.[3] In brief, Huh7.5.1 cells were treated with HCV JFH-1 at a multiplicity of infection (MOI) of 0.15 for 4 h. […] The infectivity of HCV in the medium was quantified by a focus-forming assay with Huh7.5.1 cells. Cell viability at 72 h post-treatment was simultaneously measured by the MTT assay.[16] Cell growth inhibition was evaluated as the ratio of the absorbance of the sample to that of the control.

[4] = tested on: recombinant LXRβ; set-up: method as in PMID 27489280; conditions: cited from earlier work
[5] = tested on: poliovirus; conditions: cited from earlier work
[6] = tested on: recombinant LXRα; set-up: method as in PMID 27489280; conditions: cited from earlier work
[7] = tested on: influenza A virus subtype H1N1; set-up: method as in PMID 25681711; conditions: by targeting viral hemagglutinin; cited from earlier work
[8] = Cell viability of VeroE6/TMPRSS2 cells (DAPI staining, cell count); type: cell-based; conditions: chlorocebus sabaeus, 24 h, DAPI staining, surviving cell number, read-out: Cytotoxicity CC50
Procedure: (§2) The number of cells was quantified based on the measurement of the DNA content.[20] Cell growth inhibition was evaluated as the ratio of the absorbance of the sample to that of the control. […] The cells were washed with PBS and fixed in 4% paraformaldehyde. The resultant cells were stained with 0.02% 4′,6-diamidino-2-phenylindole (DAPI) and washed with PBS four times. The number of surviving cells was quantified with a high-content imaging analyzer, ImageXpress Micro Confocal (Molecular Device, San Jose, CA, USA).

[9] = tested on: HCV JFH-1; assay: Anti-HCV assay (infectivity of HCV in the medium, focus-forming assay); type: cell-based; conditions: Hepatitis C virus, Huh-7.5.1; Huh7.5.1 cells, HCV JFH-1 MOI 0.15, 72 h; mean ± SD, triplicate
Procedure: as §1

[10] = tested on: VeroE6/TMPRSS2 cells; assay: Cell viability of VeroE6/TMPRSS2 cells (DAPI staining, cell count); type: cell-based
Procedure: as §2

[11] = tested on: LXR; assay: LXRE-driven luciferase reporter assay in Huh-7 cells; conditions: 48 h

SMILES: C=CC(C)(C)c1[nH]c2ccccc2c1/C=c1\[nH]c(=O)c(=C)[nH]c1=O [1a, neoechinulin B]
- Antiviral effects against HCV (earlier report) [1]: exhibited antiviral effects against hepatitis C virus (HCV)
- IC50 [2]: 32.9 ± 13.2 µM
- IC90 [2]: 45.6 ± 7.4 µM
- CC50 at 72 h [3]: > 20 µM
- Interaction with LXRβ (SPR) [4]: interacts with recombinant LXRα and LXRβ
- Poliovirus RNA replication in DMVs [5]: reduced the RNA replication of poliovirus
- Interaction with LXRα (SPR) [6]: interacts with recombinant LXRα and LXRβ
- Entry of influenza A virus subtype H1N1 [7]: inhibit the entry of influenza A virus subtype H1N1
- CC50 at 24 h [8]: > 70 µM
- IC50 [9]: 4.7 ± 1.4 µM
- IC90 [9]: > 20 µM

SMILES: C=c1[nH]c(=O)/c(=C/c2c[nH]c3ccccc23)[nH]c1=O [1b, (Z)-3-[(1H-Indol-3-yl)methylene]-6-methylenepiperazine-2,5-dione]
- melting point: 285 to 286 °C
- Anti-SARS-CoV-2 activity (in words) [2]: did not show anti-SARS-CoV-2 activity
- IC50 [2]: > 40 µM
- IC90 [2]: > 40 µM
- CC50 at 72 h [3]: > 20 µM
- CC50 at 24 h [8]: > 100 µM
- IC50 [9]: 2.2 ± 0.64 µM
- IC90 [9]: > 20 µM

SMILES: C=c1[nH]c(=O)/c(=C/c2ccccc2)[nH]c1=O [1c]
- melting point: 242 to 243 °C
- Anti-SARS-CoV-2 activity (in words) [2]: exhibited anti-SARS-CoV-2 activity
- IC50 [2]: 13.6 ± 3.2 µM
- IC90 [2]: 20.3 ± 3.2 µM
- CC50 at 72 h [3]: > 20 µM
- CC50 at 24 h [8]: 40.1 ± 10.5 µM
- IC50 [9]: 0.0059 ± 0.0042 µM
- IC90 [9]: > 20 µM

SMILES: C=c1[nH]c(=O)/c(=C/c2ccoc2)[nH]c1=O [1d]
- melting point: 242 to 243 °C
- Anti-SARS-CoV-2 activity (in words) [2]: exhibited anti-SARS-CoV-2 activity
- IC50 [2]: 9.3 ± 6.2 µM
- IC90 [2]: 21.2 ± 9 µM
- CC50 at 72 h [3]: > 20 µM
- CC50 at 24 h [8]: > 80 µM
- IC50 [9]: 1.4 ± 0.34 µM
- IC90 [9]: > 20 µM

SMILES: C=c1[nH]c(=O)/c(=C/c2ccsc2)[nH]c1=O [1e]
- melting point: 242 to 243 °C
- CC50 at 72 h [3]: > 20 µM
- Toxicity toward the host cells (in words) [10]: showed toxicity toward the host cells
- CC50 at 24 h [8]: 42.2 ± 7.9 µM
- IC50 [9]: 1.4 ± 0.48 µM
- IC90 [9]: > 20 µM

SMILES: C=c1[nH]c(=O)/c(=C/c2cc(C(C)(C)C)cc(C(C)(C)C)c2)[nH]c1=O [1f]
- melting point: 204 to 205 °C
- Anti-SARS-CoV-2 activity (in words) [2]: did not show anti-SARS-CoV-2 activity
- IC90 [2]: > 40 µM
- CC50 at 72 h [3]: > 20 µM
- CC50 at 24 h [8]: > 100 µM
- IC50 [9]: 0.015 ± 0.019 µM
- IC90 [9]: > 20 µM

SMILES: C=c1[nH]c(=O)/c(=C/c2ccc(C(C)(C)C)cc2)[nH]c1=O [1g]
- melting point: 212 to 213 °C
- Anti-SARS-CoV-2 activity (in words) [2]: did not show anti-SARS-CoV-2 activity
- IC90 [2]: > 40 µM
- CC50 at 72 h [3]: > 20 µM
- CC50 at 24 h [8]: > 70 µM
- IC50 [9]: 1.1 ± 0.34 µM
- IC90 [9]: > 20 µM

SMILES: C=c1[nH]c(=O)/c(=C/c2ccc(C)cc2)[nH]c1=O [1h]
- melting point: 237 to 239 °C
- Anti-SARS-CoV-2 activity (in words) [2]: exhibited anti-SARS-CoV-2 activity
- IC50 [2]: 6 ± 2.4 µM
- IC90 [2]: 16.3 ± 6.2 µM
- CC50 at 72 h [3]: > 20 µM
- CC50 at 24 h [8]: 63.1 ± 17.9 µM
- IC50 [9]: 2.7 ± 1.4 µM
- IC90 [9]: > 20 µM

SMILES: C=c1[nH]c(=O)/c(=C/c2ccc(OC)cc2)[nH]c1=O [1i]
- melting point: 229 to 231 °C
- CC50 at 72 h [3]: > 20 µM
- Toxicity toward the host cells (in words) [10]: showed toxicity toward the host cells
- CC50 at 24 h [8]: 47.2 ± 0.6 µM
- IC50 [9]: 1.3 ± 0.42 µM
- IC90 [9]: > 20 µM

SMILES: C=c1[nH]c(=O)/c(=C/c2ccc(OC)c(OC)c2)[nH]c1=O [1j]
- melting point: 237 to 238 °C
- Anti-SARS-CoV-2 activity (in words) [2]: exhibited anti-SARS-CoV-2 activity
- IC50 [2]: 10.3 ± 3.7 µM
- IC90 [2]: 20.1 ± 8.5 µM
- CC50 at 72 h [3]: > 20 µM
- CC50 at 24 h [8]: 62.8 ± 17.4 µM
- IC50 [9]: 2 ± 0.068 µM
- IC90 [9]: > 20 µM

SMILES: C=c1[nH]c(=O)/c(=C/c2cc(OC)c(OC)c(OC)c2)[nH]c1=O [1k]
- melting point: 219 to 221 °C
- Anti-SARS-CoV-2 activity (in words) [2]: did not show anti-SARS-CoV-2 activity
- IC90 [2]: > 40 µM
- CC50 at 72 h [3]: > 20 µM
- CC50 at 24 h [8]: 78.8 ± 4.5 µM
- IC50 [9]: 1.1 ± 0.6 µM
- IC90 [9]: > 20 µM

SMILES: C=c1[nH]c(=O)/c(=C/c2ccc(C(=O)OC)cc2)[nH]c1=O [1l]
- melting point: 248 to 249 °C
- Anti-SARS-CoV-2 activity (in words) [2]: exhibited anti-SARS-CoV-2 activity
- IC50 [2]: 8.4 ± 2.1 µM
- IC90 [2]: 14.1 ± 1.8 µM
- CC50 at 72 h [3]: > 20 µM
- CC50 at 24 h [8]: > 50 µM
- IC50 [9]: 1.2 ± 0.16 µM
- IC90 [9]: 6.5 ± 1.84 µM

SMILES: C=c1[nH]c(=O)/c(=C/c2ccc(N(C)C)cc2)[nH]c1=O [1m]
- melting point: 225 to 227 °C
- CC50 at 72 h [3]: > 20 µM
- Toxicity toward the host cells (in words) [10]: showed toxicity toward the host cells
- CC50 at 24 h [8]: 28.3 ± 6.2 µM
- IC50 [9]: 1.2 ± 0.54 µM
- IC90 [9]: > 20 µM

SMILES: C=c1[nH]c(=O)/c(=C/c2ccc(C(F)(F)F)cc2)[nH]c1=O [1n]
- melting point: 244 to 245 °C
- CC50 at 72 h [3]: > 20 µM
- Toxicity toward the host cells (in words) [10]: showed toxicity toward the host cells
- CC50 at 24 h [8]: 30.1 ± 7.3 µM
- IC50 [9]: 1.6 ± 0.32 µM
- IC90 [9]: 9.7 ± 1.06 µM

SMILES: C=c1[nH]c(=O)/c(=C/c2ccc(-c3ccccc3)cc2)[nH]c1=O [1o]
- melting point: 229 to 230 °C
- Anti-SARS-CoV-2 activity (in words) [2]: exhibited anti-SARS-CoV-2 activity
- IC50 [2]: 20.8 ± 8 µM
- IC90 [2]: > 40 µM
- CC50 at 72 h [3]: > 20 µM
- CC50 at 24 h [8]: > 100 µM
- IC50 [9]: 4.9 ± 0.66 µM
- IC90 [9]: > 20 µM

SMILES: C=c1[nH]c(=O)/c(=C/c2ccc3ccccc3c2)[nH]c1=O [1p]
- melting point: 216 to 217 °C
- Anti-SARS-CoV-2 activity (in words) [2]: did not show anti-SARS-CoV-2 activity
- IC50 [2]: > 40 µM
- IC90 [2]: > 40 µM
- CC50 at 72 h [3]: > 20 µM
- CC50 at 24 h [8]: 40.7 ± 20.1 µM
- IC50 [9]: 0.26 ± 0.11 µM
- IC90 [9]: 1.9 ± 0.65 µM

SMILES: O=S(=O)(c1ccccc1)N(CC(F)(F)F)c1ccc(C(O)(C(F)(F)F)C(F)(F)F)cc1 [T0901317]
- LXRE-driven luciferase activity (agonist) [11]: increased the LXRE-driven luciferase activity

SMILES: C=CC(C)(C)c1[nH]c2ccccc2c1/C=C1\NC(=O)C(C)(OC)NC1=O (stereo not shown) [compound 6, variecolorin H]
- IC50 [2]: > 40 µM
- IC90 [2]: > 40 µM
- CC50 at 72 h [3]: > 20 µM
- CC50 at 24 h [8]: > 100 µM
- IC50 [9]: > 20 µM
- IC90 [9]: > 20 µM

SMILES: C=CC(C)(C)c1[nH]c2ccccc2c1C[C@@H]1NC(=O)[C@H](C)NC1=O [compound 8, preechinulin]
- IC50 [2]: > 40 µM
- IC90 [2]: > 40 µM
- CC50 at 72 h [3]: > 20 µM
- CC50 at 24 h [8]: > 100 µM
- IC50 [9]: > 20 µM
- IC90 [9]: > 20 µM
